Measurements published in paper PMC4382497, “Inverse Agonistic Action of 3-Iodothyronamine at the Human Trace Amine-Associated Receptor 5” (PLoS ONE, 2015).

Biological target: T1, hTAAR5 (Homo sapiens, UniProt O14804)
T1 construct: gene TAAR5; full length; N-terminal HA tag (YPYDVPDYA) and first 21 residues of bovine rhodopsin (Rho-tag) kept; vector pcDps; transient in HEK293 cells
T1 sequence (O14804 1-337): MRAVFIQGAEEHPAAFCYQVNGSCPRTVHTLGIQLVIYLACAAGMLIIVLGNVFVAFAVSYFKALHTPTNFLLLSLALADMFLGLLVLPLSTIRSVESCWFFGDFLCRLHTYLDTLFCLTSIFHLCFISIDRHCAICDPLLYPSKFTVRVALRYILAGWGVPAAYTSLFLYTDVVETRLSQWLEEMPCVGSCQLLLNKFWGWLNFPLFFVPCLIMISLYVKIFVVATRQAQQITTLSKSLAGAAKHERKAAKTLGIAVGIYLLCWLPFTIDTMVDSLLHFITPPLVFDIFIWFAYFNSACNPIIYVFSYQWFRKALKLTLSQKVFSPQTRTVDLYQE
Assay: NFAT-RE luciferase reporter (IP3-luc), HEK293
Type: cell-based
Details: inverse agonist; reduction of basal Gq/11 (IP3) signaling; 6 h, 37 °C; 1 nM to 100 μM

NCCc1ccc(Oc2ccc(O)cc2)c(I)c1 [3-T1AM]
EC50: 4.4 ± 0.9 µM
